Where a name gives a salt, the structure may show the parent alone. Read-outs that look alike come from different tables or passages of the source. Blank lines part the entries; values can stand above or below the compound they belong to.
Experiments:
[1] = Plasma pharmacokinetics of DTX in rats with or without OPD (LC-MS/MS); conditions: male, Sprague-Dawley, rat, po, 50 mg/kg
Protocol: Ten 8-week-old male Sprague-Dawley rats were randomly divided into the following two groups (5 rats in each group). Group 1: rats were administered a single oral dose of 50 mg/kg of DTX dissolved in 0.5% CMC-Na. […] Blood samples were centrifuged for 10 min at approximately 4000 rpm. 100 µL of plasma was collected from the upper layer, and mixed with 20 µL of taxol internal standard solution for 30 s followed by 500 µL of methanol for 3 min, then centrifuged at 15,000 rpm for 10 min. The supernatant was separated and collected. 5 μL of the supernatant was injected into the LC-MS/MS system for detection and quantification.
Separation was performed on a ZORBAX Extend-C18 (2.1 × 100 mm, 3.5 µm, Agilent, Palo Alto, CA, USA). The column oven was maintained at 25 °C.

[2] = system: MDCK-MDR1 cells; test: MTT assay, viability of MDCK-MDR1 cells; format: cell-based, canine
Protocol: The effects of OPD and VCR on the viability of MDCK-MDR1 cells were observed by a MTT assay.
MDCK-MDR1 Cells were obtained from Shanghai Zhongya Institute of Biological Genes Institute (CinoAsia Co., Ltd., Shanghai, China). Cells were cultured as previously described. In brief, cells were cultured in high glucose DMEM medium supplemented with 10% fetal bovine serum (FBS), 1% non-essential amino acids, 1% L-glutamine, and a penicillin-streptomycin double antibiotic solution. Cells were incubated at 37 °C with 5% CO2 and cell medium was changed every other day.

[3] = Transport of VCR across MDCK-MDR1 cell monolayer (A→B); format: in vitro ADME, canine; conditions: dog, MDCK-MDR1, pH 7.4, VCR 264.46 μmol/L alone, 37 °C, n = 3
Protocol: Briefly, cell monolayers were pre-incubated in Hank’s buffered salt solution (HBSS, pH 7.4) for 30 min at 37 °C. Trans-epithelial electric resistance (TEER) values of the MDCK-MDR1 cell monolayer ranged from 500 to 800 Ω·cm^2. All drugs were dissolved in DMSO and diluted in HBSS. The final concentration of DMSO is less than 1%. […] After treatments, cells were incubated at 37 °C for 2 h. After 2 h, 500 µL aliquots were taken from the basal side, mixed with 500 µL methanol, vortexed 2 min and then centrifuged for 10 min at 16,000 rpm. The supernatants were collected to measure the concentrations of compounds by high performance liquid-chromatography/mass spectroscopy (LC-MS/MS). Apparent permeability (Papp) values are calculated from the relationship: Papp=dQ/dt/A×C0 where dQ/dt is the cumulative transport rate of the compound on the receiving side (µg/s), A is the surface area of the cell monolayer (cm^2), and C0 is the initial concentration in the donor compartment (µg/mL).

[4] = system: P-gp; test: Western blotting of P-gp protein expression in MDCK-MDR1 cells; format: cell-based, canine; conditions: OPD 17.5 and 70 μmol/L for 48 h, in comparison with control group
Protocol: MDCK-MDR1 cells treated with different concentrations of OPD (3.5, 17.5 and 70 μmol/L) for 48 h were subject to western blotting for determination of P-gp protein level. Cells were washed 3 times with PBS. Total protein was extracted and the protein concentrations were measured according to the manufacturer’s instructions. Cell protein were denatured at 70 °C for 10 min. Protein samples with equivalent amounts were loaded and separated by 10% SDS-polyacrylamide gel electrophoresis and transferred to a polyvinylidene difluoride membranes. Membranes were blocked in 5% powdered non-fat milk solution for 4 h at room temperature and incubated with anti-P-gp primary antibody (GADPH was used as a loading control) overnight at 4 °C followed by an goat anti-mouse IgG secondary antibody (1:5000 dilutions) for 4 h at room temperature. Membranes were incubated with an ECL chromogenic solution for 4 min in the dark. The target protein bands were detected and protein intensity was calculated by a gel imaging system (Beta 3, Bio-Rad, Irvine, CA, USA).

[5] = system: MDR1; test: RT-qPCR of MDR1 mRNA expression in MDCK-MDR1 cells; format: cell-based, human; conditions: OPD 3.5, 17.5 and 70 μmol/L for 48 h, compared to untreated cells
Protocol: MDCK-MDR1 cells were cultured for 5 days and treated with different concentrations of OPD (3.5, 17.5 and 70 μmol/L) for 48 h to measure MDR1 gene expression level. The total celluar RNA was extracted by the RNA easy Total RNA mini kit and reverse transcribed to cDNA with reverse transcription kit according to the manufacturer’s protocol. PCR primer design and synthesis were performed by the primer design software provided by Applied Biosystems. Primer sequences for MDR1 and hRpIPIv-F (loading internal control) genes are as follows: human hRpIP1v-F forward, 5′-[…]-3′; human hRpIP1v-F reverse, 5′-[…]-3′; human MDR1 forward, 5′-[…]-3′, human MDR1 reverse, 5′-[…]-3′. PCR amplification was performed using Power SYBR Green PCR Mix according to the manufacturer’s protocol (Life Technologies, Carlsbad, CA, USA).

[6] = target: recombinant human P-gp membranes (Homo sapiens, UniProt P08183); conditions: compared to basal P-gp ATPase activity
Chain of recombinant human P-gp membranes (P08183 whole entry): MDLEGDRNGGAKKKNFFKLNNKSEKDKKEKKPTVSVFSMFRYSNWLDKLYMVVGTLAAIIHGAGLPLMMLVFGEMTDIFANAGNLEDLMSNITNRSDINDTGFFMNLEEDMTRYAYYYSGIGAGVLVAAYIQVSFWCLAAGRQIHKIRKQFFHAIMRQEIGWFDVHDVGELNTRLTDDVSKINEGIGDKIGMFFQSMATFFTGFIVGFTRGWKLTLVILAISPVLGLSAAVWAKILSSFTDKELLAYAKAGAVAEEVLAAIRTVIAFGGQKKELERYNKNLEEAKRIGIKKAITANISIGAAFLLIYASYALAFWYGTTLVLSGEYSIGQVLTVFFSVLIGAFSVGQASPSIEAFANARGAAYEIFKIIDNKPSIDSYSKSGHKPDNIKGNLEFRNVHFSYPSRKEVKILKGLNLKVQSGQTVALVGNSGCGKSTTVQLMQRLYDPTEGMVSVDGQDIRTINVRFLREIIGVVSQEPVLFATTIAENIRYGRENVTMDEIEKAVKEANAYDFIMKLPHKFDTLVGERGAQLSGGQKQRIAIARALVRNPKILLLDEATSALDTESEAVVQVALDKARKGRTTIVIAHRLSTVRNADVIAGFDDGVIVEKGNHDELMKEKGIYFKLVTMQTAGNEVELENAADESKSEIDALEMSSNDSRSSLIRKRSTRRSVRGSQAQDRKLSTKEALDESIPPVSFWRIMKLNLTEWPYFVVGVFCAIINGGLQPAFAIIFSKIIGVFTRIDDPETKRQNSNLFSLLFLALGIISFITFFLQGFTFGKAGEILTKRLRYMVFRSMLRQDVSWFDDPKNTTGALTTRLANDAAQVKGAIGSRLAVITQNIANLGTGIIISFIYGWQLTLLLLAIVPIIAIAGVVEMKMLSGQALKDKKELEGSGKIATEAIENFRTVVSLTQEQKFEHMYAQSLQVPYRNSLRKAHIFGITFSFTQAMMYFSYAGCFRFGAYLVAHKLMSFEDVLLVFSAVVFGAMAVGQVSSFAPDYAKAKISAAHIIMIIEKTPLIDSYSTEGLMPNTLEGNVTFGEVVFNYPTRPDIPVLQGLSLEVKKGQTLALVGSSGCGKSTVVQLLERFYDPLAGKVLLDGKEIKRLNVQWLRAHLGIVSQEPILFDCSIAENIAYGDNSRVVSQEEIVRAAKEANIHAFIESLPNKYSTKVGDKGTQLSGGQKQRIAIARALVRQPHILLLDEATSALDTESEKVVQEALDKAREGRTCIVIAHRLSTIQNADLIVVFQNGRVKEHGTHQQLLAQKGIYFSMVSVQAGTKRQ
Protocol: P-gp ATPase activity was measured using P-gp-Glo™ assay systems kit according to the manufacturer’s instructions, the method detail of which was also described in our previous study [29]. […] After 40 min, ATP detection reagent was added, respectively. The unconsumed ATP detection reagent reacted with luciferase at room temperature for 20 min and the chemiluminescence intensity was detected. The average relative light units (RLU) was calculated as follows:RLUNa3VO4 − RLUNT = ΔRLUbasal(1) RLUNa3VO4 − RLUTC = ΔRLUTC(2)
ΔRLUbasal, the decrease in luminescence of the untreated group (RLUNT) compared to the Na3VO4 group (RLUNa3VO4), represents the basal P-gp ATPase activity. ΔRLUTC, the decrease in luminescence of the test compound-treated group (RLUTC) compared to the Na3VO4 group (RLUNa3VO4), indicates the P-gp ATPase activity in the presence of the test compound. The decrease in luminescence reflect ATP consumption by P-gp and is proportional to P-gp activity.

- AUC(0-inf) [1]: 306 ± 21.1 ng·h/mL
- AUC(0-t) [1]: 276 ± 19.1 ng·h/mL
- Cmax [1]: 118 ± 10.9 ng/mL
- MRT inf [1]: 4.29 ± 0.98 h
- MRT last [1]: 2.96 ± 0.22 h
- half-life [1]: 4.13 ± 1.08 h
Compound: CC(=O)O[C@@]12CO[C@@H]1C[C@H](O)[C@@]1(C)C(=O)[C@H](O)C3=C(C)[C@@H](OC(=O)[C@H](O)[C@@H](NC(=O)OC(C)(C)C)c4ccccc4)C[C@@](O)([C@@H](OC(=O)c4ccccc4)[C@H]21)C3(C)C [DTX, Docetaxel]

- Papp A→B at 2 h, 264.46 μmol/L [3]: 0.37 ± 0.04 ×10⁻⁶ cm/s
Compound: CC[C@]1(O)C[C@H]2CN(CCc3c([nH]c4ccccc34)[C@@](C(=O)OC)(c3cc4c(cc3OC)N(C=O)[C@H]3[C@@](O)(C(=O)OC)[C@H](OC(C)=O)[C@]5(CC)C=CCN6CC[C@]43[C@@H]65)C2)C1 [VCR, Vincristine sulfate]
- cytotoxicity (viability of MDCK-MDR1 cells, MTT assay) ([2]; VCR 264.46 μmol/L): no obvious cytotoxicity

- increase in P-gp ATPase activity ([6]; OPD 3.5 μmol/L): 0.55 fold
- increase in P-gp ATPase activity ([6]; OPD 17.5 μmol/L): 0.31 fold
- increase in P-gp ATPase activity ([6]; OPD 70 μmol/L): 0.50 fold
Compound: CC1(C)O[C@H]1COc1c2ccoc2cc2oc(=O)ccc12 [OPD, Oxypeucedanin]
- cytotoxicity (viability of MDCK-MDR1 cells, MTT assay) ([2]; OPD 3.82, 19.08, 76.30 μmol/L): no obvious cytotoxicity
- P-gp protein expression [4]: obvious reduction
- mRNA expression of MDR1 [5]: significantly downregulated
